In brackets after ≈: the same amount, converted by molar mass.
Key:
Type in all cases: functional
Pyricularia oryzae [1] = test: Fungicidal activity against Magnaporthe oryzae by agar dilution method
Pyricularia oryzae [2] = test: Fungicidal activity against Magnaporthe oryzae in rice seedlings assessed as control of rice blast at 500 ppm by curative foliar treatment
Pyricularia oryzae [3] = test: Fungicidal activity against Magnaporthe oryzae in rice seedlings assessed as control of rice blast at 500 ppm by preventive foliar treatment
Nakataea oryzae = test: Fungicidal activity against Magnaporthe salvinii by agar dilution method
Podosphaera fuliginea [4] = test: Fungicidal activity against Podosphaera fuliginea in cucumber assessed as control of cucumber powdery mildew at 125 ppm measured after 10 days of inoculation
Podosphaera fuliginea [5] = test: Fungicidal activity against Podosphaera fuliginea in cucumber assessed as control of cucumber powdery mildew at 62.5 ppm measured after 10 days of inoculation
Podosphaera fuliginea [6] = test: Fungicidal activity against Podosphaera fuliginea in cucumber assessed as control of cucumber powdery mildew at 62.5 ppm measured after 7 days of inoculation
Podosphaera fuliginea [7] = test: Fungicidal activity against Podosphaera fuliginea in cucumber assessed as control of cucumber powdery mildew at 125 ppm measured after 7 days of inoculation

| SMILES | MIC (Pyricularia oryzae [1]) | Activity (Pyricularia oryzae [2]) | Activity (Pyricularia oryzae [3]) | MIC (Nakataea oryzae) | Activity (Podosphaera fuliginea [4]) | Activity (Podosphaera fuliginea [5]) | Activity (Podosphaera fuliginea [6]) | Activity (Podosphaera fuliginea [7]) |
| --- | --- | --- | --- | --- | --- | --- | --- | --- |
| COc1cc(C)nc(-n2nc(C)cc2C)n1 | 50 µg/mL (≈ 229 µM) | 96% | 81% | 100 µg/mL (≈ 458 µM) | – | – | – | – |
| C=CCc1c(C)nn(-c2nc(C)cc(C)n2)c1C | 100 µg/mL (≈ 413 µM) | 99% | 85% | 25 µg/mL (≈ 103 µM) | – | – | – | – |
| Cc1cc(C)n(-c2nc(C)c(C)c(C)n2)n1 | 50 µg/mL (≈ 231 µM) | 78% | 65% | 100 µg/mL (≈ 462 µM) | – | – | – | – |
| Cc1cc(C)nc(-n2nc(C)cc2C)n1 | > 100 µg/mL | 100% | 99% | 100 µg/mL (≈ 494 µM) | – | – | – | – |
| Cc1ccnc(-n2nc(C)cc2C)n1 | > 100 µg/mL | 96% | 78% | > 100 µg/mL | – | – | – | – |
| Cc1cc(C)n(-c2ncccn2)n1 | > 100 µg/mL | 73% | 78% | > 100 µg/mL | – | – | – | – |
| Cc1cc(C)n(-c2nc(C)c3ccccc3n2)n1 | 25 µg/mL (≈ 105 µM) | 98% | 71% | 6.25 µg/mL (≈ 26.2 µM) | – | – | – | – |
| Cc1cc(C)n(-c2ncc3ccccc3n2)n1 | 25 µg/mL (≈ 111 µM) | 99% | 84% | 25 µg/mL (≈ 111 µM) | – | – | – | – |
| CCc1cc(C)n(-c2nc(C)cc(C)n2)n1 | 50 µg/mL (≈ 231 µM) | 100% | 31% | 50 µg/mL (≈ 231 µM) | – | – | – | – |
| CCc1cc(C)n(-c2nccc(C)n2)n1 | 25 µg/mL (≈ 124 µM) | 98% | 84% | 50 µg/mL (≈ 247 µM) | – | – | – | – |
| CCc1cc(C)n(-c2ncccn2)n1 | > 100 µg/mL | 93% | 74% | > 100 µg/mL | – | – | – | – |
| CCc1cc(CC)n(-c2nc(C)cc(C)n2)n1 | 25 µg/mL (≈ 109 µM) | 100% | 40% | 25 µg/mL (≈ 109 µM) | – | – | – | – |
| CCc1cc(CC)n(-c2nccc(C)n2)n1 | 25 µg/mL (≈ 116 µM) | 100% | 59% | 25 µg/mL (≈ 116 µM) | – | – | – | – |
| CCc1cc(CC)n(-c2ncccn2)n1 | 100 µg/mL (≈ 494 µM) | 100% | 90% | > 100 µg/mL | – | – | – | – |
| CCCc1cc(CCC)n(-c2nc(C)cc(C)n2)n1 | 12.5 µg/mL (≈ 48.4 µM) | 100% | 40% | 6.25 µg/mL (≈ 24.2 µM) | – | – | – | – |
| Cc1cc(C)nc(-n2nc(C(C)C)cc2C(C)C)n1 | 6.25 µg/mL (≈ 24.2 µM) | 100% | 31% | 6.25 µg/mL (≈ 24.2 µM) | – | – | – | – |

| SMILES | MIC (Pyricularia oryzae [1]) | Activity (Pyricularia oryzae [2]) | Activity (Pyricularia oryzae [3]) | MIC (Nakataea oryzae) | Activity (Podosphaera fuliginea [4]) | Activity (Podosphaera fuliginea [5]) | Activity (Podosphaera fuliginea [6]) | Activity (Podosphaera fuliginea [7]) |
| --- | --- | --- | --- | --- | --- | --- | --- | --- |
| Cc1cc(C)nc(-n2nc(C(C)(C)C)cc2C(C)(C)C)n1 | > 100 µg/mL | 89% | 69% | > 100 µg/mL | – | – | – | – |
| Cc1cc(C)nc(-n2nc(C)cc2-c2ccccc2)n1 | 100 µg/mL (≈ 378 µM) | 27% | 67% | – | – | – | – | – |
| Cc1cc(C)nc(-n2nc(-c3ccccc3)cc2-c2ccccc2)n1 | > 100 µg/mL | 40% | 31% | > 100 µg/mL | – | – | – | – |
| Cc1cc(C)nc(-n2nc(C)cc2C(F)(F)F)n1 | > 100 µg/mL | 0% | 53% | > 100 µg/mL | – | – | – | – |
| Cc1cc(C)nc(-n2ncc3ccccc32)n1 | 50 µg/mL (≈ 223 µM) | 96% | 31% | 25 µg/mL (≈ 111 µM) | – | – | – | – |
| Cc1cc(C)nc(-n2nc3c(c2C)CCCC3)n1 | 12.5 µg/mL (≈ 51.6 µM) | 99% | 84% | 12.5 µg/mL (≈ 51.6 µM) | – | – | – | – |
| Cc1nc(-n2nc(C)c(C)c2C)nc(C)c1C | 50 µg/mL (≈ 217 µM) | 99% | 81% | 50 µg/mL (≈ 217 µM) | – | – | – | – |
| Cc1cc(C)nc(-n2nc(C)c(C)c2C)n1 | 100 µg/mL (≈ 462 µM) | 99% | 81% | 50 µg/mL (≈ 231 µM) | – | – | – | – |
| Cc1ccnc(-n2nc(C)c(C)c2C)n1 | 50 µg/mL (≈ 247 µM) | 100% | 63% | 50 µg/mL (≈ 247 µM) | – | – | – | – |
| CCc1c(C)nn(-c2nc(C)cc(C)n2)c1C | 50 µg/mL (≈ 217 µM) | 100% | 100% | 50 µg/mL (≈ 217 µM) | – | – | – | – |
| CCCc1c(C)nn(-c2nc(C)cc(C)n2)c1C | 25 µg/mL (≈ 102 µM) | 98% | 90% | 12.5 µg/mL (≈ 51.2 µM) | – | – | – | – |
| Cc1cc(C)nc(-n2nc(C)c(CC(C)C)c2C)n1 | 6.25 µg/mL (≈ 24.2 µM) | 100% | 90% | 6.25 µg/mL (≈ 24.2 µM) | – | – | – | – |
| Cc1cc(C)nc(-n2[nH]c(C)cc2=O)n1 | > 100 µg/mL | 0% | 31% | > 100 µg/mL | – | – | – | – |
| CCCCc1c(C)nc(N(C)C)nc1O [DIMETHIRIMOL] | – | – | – | – | 100% | 100% | 100% | 100% |
| COc1cc(C)nc(-n2nc(C)cc2OC)n1 [EPIRIZOLE] | > 100 µg/mL | 89% | – | > 100 µg/mL | – | – | – | – |
| CCCCc1c(C)nc(NCC)[nH]c1=O [ETHIRIMOL] | – | – | – | – | 100% | 100% | 100% | 100% |
